Columns and labels:
[1] = tissue CO distribution in CD-1 female mice; type: in vivo; details: for CO levels in the liver compared with blood, kidney, heart and lung tissues (in words): 50 mg/kg i.v., CD-1 female mice
Excerpt: Carbon monoxide-releasing molecules (CO-RMs) are carriers of carbon monoxide (CO) and can release CO in vivo. CO can bind to hemoglobin in the blood and to various heme proteins in cells. Vreman et al. Anal Biochem 341:280-289 describes a method to release CO bound to tissues into the gas phase, and quantify it using GC-RCP chromatography. We applied this methodology to assay CO in various tissues of mice treated with CO-RMs (see Example 2, herein). However, since the CO release method of Vreman (in vitro incubation with sulfosalicylic acid) also releases CO from the CO-RM, the CO released from tissue samples represents CO bound to tissue proteins and CO from CO-RM compound accumulated in tissue. For CO-RM compounds with slow CO release rates in vivo, the CO measured at the earliest sampling point (5 min after CO-RM administration) may therefore mostly be a measure for the tissue distribution of the intact CO-RM.
The compound was dissolved in PBS and the acids neutralized with 3 eq. NaOH (from a NaOH stock solution 2.5M). The pH was brought down to about 7.5 by adding HCl (from a stock solution 1 M). The compound was then administered i.v. (50 mg/kg in 150 μL) to two CD-1 female mice (Charles River). The mice were warmed for ten minutes under an infrared lamp to facilitate the i.v. administration into a tail vein. Five and twenty minutes after the dosing, the two mice were anesthetized with IsoFluorane, and the blood was collected from the retro-orbital plexus using a Pasteur pipette containing ˜20 μL of heparin solution. The animal was opened; the portal vein was cut and the organs were perfused by injecting 10-15 mL of cold PBS in the left ventricle of the heart. Then the heart, kidneys, liver and lung were collected, briefly washed with potassium phosphate buffer, dried with a paper towel and snap frozen in liquid nitrogen. Samples of the freshly collected blood were transferred to AVOXimeter 4000 cuvettes (ITC) to measure the levels of carboxyhemoglobin (COHb), oxyhemoglobin (O2Hb) and methemoglobin (MetHb) using a portable AVOXimeter 4000 CO-oximeter. The results are shown as mean percentage of total hemoglobin species in circulation. The organs and blood were conserved at −20° C. until the CO quantization was done.
For CO quantization, the protocol described by Vreman et al was followed. The organs were cut into small pieces, which were weighed and 4 volumes of water (a volume corresponding to four times the weight of the tissue sample) were added to each organ sample. The tissues were homogenized using a tissue tearer. Aliquots of homogenate ([…]) were placed into vials to which were added water ([…]) and sulfosalicylic acid (SSA, 5 μL, 30% [wt/vol]) immediately before they were closed with a gas-tight septum cap. The vials were incubated on ice for at least 20 min before being analyzed by GC-RCP (in later experiments, the incubation time was extended to 45 minutes). The amount of CO was calculated using a calibration curve prepared from CO standards. […] COHb was determined using an oximeter (AVOXimeter 4000, USA).
Table 6 provides the CO distribution in blood, heart, liver, lung and kidney following Compound 3b administration at 50 mg/kg by […]. CO was assayed by GC-RCP, 5 and 20 minutes after administration of the compound. The CO concentration in the several organs is normalized to the amount of CO quantified in the blood (CO concentration as fraction of concentration in blood 50 mg/kg Compound 3b injected i.v. at t=0; CO assayed in tissues by GC at t=5 min and t=20 min).

[2] = in vitro metabolism study: decay on incubation with liver microsomes; type: in vitro ADME; details: one hour / 60 minutes incubation
Description: Sixty percent decay could release up to 1.8 molar equivalents of CO. […] Therefore liver microsomes accelerate the decomposition of the compound. […] Microsomes were incubated with Compound 1b using closed vials to enable quantitative measurement of the released CO. As a control, Compound 1b was incubated under similar conditions in the absence of microsomes.
In an in vitro metabolism study of the CO release kinetics of Compound 3b, it was determined that 80% of Compound 3b decayed in 60 minutes incubation with liver microsomes. In order to investigate if this accelerated decomposition of Compound 3b in the presence of microsomes was inducing a faster CO release from the compound, the CO release profile of Compound 3b in the presence of liver microsomes was determined. Microsomes were incubated with Compound 3b using closed vials to enable quantitative measurement of the released CO. As a control, Compound 3b was incubated under similar conditions in the absence of microsomes. […] The initial rate of CO release is 0.0297 CO equivalents (297.22 pmol) per minute in the presence of microsomes and 0.0072 CO equivalents (72.265 pmol) per minute in the absence of microsomes.

[3] = system: liver ischemia-reperfusion model; assay: liver ischemia-reperfusion model; type: in vivo, C57BL/6 mice; details: 30 mg/kg i.p. 1 h before and 1 h after surgery; ALT 24 h later
Description: Liver ischemia-reperfusion model in C57BL/6 mice. In anesthetized C57BL/6 mice, the hepatic artery and portal vein were clamped for 30 min; 24 h later, serum ALT levels were determined. Compound 3b was dosed i.p. at 30 mg/kg each 1 h before and 1 h after surgery.
FIG. 20 depicts the effect of Compound 3b in the Ischemia-Reperfusion model. In anesthetized C57BL/6 mice, the hepatic artery and portal vein were clamped for 30 min; 24 h later, serum ALT levels were determined. Compound 3b was administered by i.p. injection at 30 mg/kg, 1 hour before and 1 h after surgery.

[4] = system: murine partial hepatectomy model; assay: liver regeneration, murine partial (70%) hepatectomy model; type: in vivo, mice; details: 2×100 mg/kg
Description: Liver regeneration in the murine partial hepatectomy model to test for regenerative activity. Model: partial (70%) liver resection in mice and follow rate of regeneration.
FIG. 22 depicts the effect of Compound 3b in a model of liver regeneration. Animals were anesthetized and 70% of the liver was resected, corresponding to the left and median liver lobes. Compound 3b was administered (2×100 mg/kg) 1 h before and 1 h after surgery. Two days later, animals were sacrificed, livers harvested, weighed, and stained for phospho histone H3 (PH3, a specific marker for cell division).

[5] = storage stability of the solid; type: physicochemical; details: brown vials, ambient temperature, under N2
Excerpt: Following the procedure described by Beck and coworkers (Achatz et al., Anorg. Allg. Chem (2005) 631:2339-2346) saponification of compound (3-a) or (3-c) with NaOH followed by protonation with an acid (e.g., HCl or H2SO4) in aqueous solution led to the formation of tricarbonyl[tris(2-isocyano-2-methyl-propionic acid)]Mo(0) (3-b). Compound (3-b) is stable when stored in brown vials at ambient temperature under N2 for over 6 months or more.

[6] = system: lethal APAP liver failure model; assay: lethal APAP liver failure model (500 mg/kg APAP i.p.), survival; details: 2×120 mg/kg, 1 h and 3 h or 3 h and 5 h after APAP (500 mg/kg); 4 days
Description: Compound 3b was tested in a lethal APAP liver failure model (see, e.g. Imaeda et al. J Clin Invest (2009) 119:305-14).
Male C57BL/6 mice fasted overnight to increase CyP450 activity. APAP dosed i.p. at 500 mg/kg. Survival monitored over 3 to 5 days.
FIGS. 18A-18B depicts the survival curve of C57BL/6 mice injected (i.p.) with 500 mg/kg of APAP and treated with Compound 3b. Mice were fasted overnight and APAP was administered afterward (n=15). Compound 3b was administered at a dose of 120 mg/kg at 1 h and 3 h (A) or at 3 h and 5 h (B) after APAP administration. Mice survival was monitored for 4 days.
Mice were fasted overnight and APAP was administered afterward (n=15). Compound 3b was administered at a dose of 120 mg/kg (ip) at +3 h or +4 h after APAP administration. Another group of mice received NAC (150 mg/kg, ip) at +1 h after APAP. The remaining two groups are administered in NAC+ Compound 3b combination mode; one group of mice was administered with NAC (150 mg/kg, ip) at +1 h plus Compound 3b (120 mg/kg, ip)+3 h and other with Compound 3b (150 mg/kg, ip) at +1 h plus Compound 3b (120 mg/kg, ip)+4 h. Mice survival was monitored for 4 days.

Compound	CO levels in the liver compared with blood, kidney, heart and lung tissues (in words) [1]	compound decayed on incubation with liver microsomes [2]	CO concentration as fraction of concentration in blood: Blood, 5 min ([1]; 50 mg/kg, blood, t=5 min)	CO concentration as fraction of concentration in blood: Blood, 20 min ([1]; 50 mg/kg, blood, t=20 min)	CO concentration as fraction of concentration in blood: Heart, 5 min ([1]; 50 mg/kg, heart, t=5 min)	CO concentration as fraction of concentration in blood: Heart, 20 min ([1]; 50 mg/kg, heart, t=20 min)	CO concentration as fraction of concentration in blood: Kidney, 5 min ([1]; 50 mg/kg, kidney, t=5 min)	CO concentration as fraction of concentration in blood: Kidney, 20 min ([1]; 50 mg/kg, kidney, t=20 min)	CO concentration as fraction of concentration in blood: Liver, 5 min ([1]; 50 mg/kg, liver, t=5 min)	CO concentration as fraction of concentration in blood: Liver, 20 min ([1]; 50 mg/kg, liver, t=20 min)	CO concentration as fraction of concentration in blood: Lung, 5 min ([1]; 50 mg/kg, lung, t=5 min)	CO concentration as fraction of concentration in blood: Lung, 20 min ([1]; 50 mg/kg, lung, t=20 min)	CO concentration in the liver relative to blood ([1]; five minutes after i.v. injection)	serum ALT [3]	liver weight increase 48 h after resection ([4]; 1 h before and 1 h after surgery, control 89%)	PH3 staining (cell division), in words ([4]; two days after resection)	stable when stored [5]	survival [6]
CC([N+]#[C][Mo-6]([C]#[O+])([C]#[O+])([C]#[O+])([C]#[N+]C(C)C(=O)O)[C]#[N+]C(C)C(=O)O)C(=O)O (stereo not drawn) [Compound 2b, tricarbonyl[tris(2-isocyanopropionic acid)]Mo(0)]	increased CO levels in the liver																	
[C-]#[N+]C(C)(C)C(=O)O.[C-]#[N+]C(C)(C)C(=O)O.[C-]#[N+]C(C)(C)C(=O)O.[C-]#[O+].[C-]#[O+].[C-]#[O+].[Mo] [Compound 3b, tricarbonyl[tris(2-isocyano-2-methyl-propionic acid)]Mo(0)]	increased CO levels in the liver	80%	1	1	0.046 ± 0.012	0.072 ± 0.055	0.419 ± 0.295	0.074 ± 0.028	5.26 ± 3.18	0.163 ± 0.062	0.049 ± 0.020	0.060 ± 0.046	five times higher in the liver than in blood	29 U/L	102%	increases PH3 staining	over 6 months	100%
tricarbonyl[tris(isocyanoacetic acid)]Mo(0) [Compound 1b]	no preferential accumulation of CO in the liver	60%																

From patent US9163044B2, “Carbon monoxide releasing molecules and uses thereof” (Alfama, Inc., priority 2011, dated 2015)
